From article PMC6364417, “Kinase inhibitor library screening identifies synergistic drug combinations effective in sensitive and resistant melanoma cells” (Journal of Experimental & Clinical Cancer Research : CR, 2019)

What was measured:
Assay in all cases: Kinase inhibitor library screening, PrestoBlue cell viability, 1 or 10 μM, 72 h
[1] = test system: IGR37-XP cells (Vemurafenib-resistant); details: IGR37 XP, in %
[2] = test system: IGR37-GP cells (Dabrafenib-resistant); details: IGR37 GP, in %
A375 cells (parental) = details: A375 Parental, in %
501Mel cells (parental) = details: 501Mel Parental, in %
How it was run: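 Cells are treated with each inhibitor at 1 or 10 μM, incubated 72 h, then PrestoBlue reagent is added and the plate is read. Data are normalised to untreated cells.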

[3] = test system: 501Mel-GP cells (Dabrafenib-resistant); details: 501Mel GP, in %
[4] = test system: A375-XP cells (Vemurafenib-resistant); details: A375 XP, in %
[5] = test system: A375-GP cells (Dabrafenib-resistant); details: A375 GP, in %
IGR37 cells (parental) = details: IGR37 Parental, in %
[6] = test system: 501Mel-XP cells (Vemurafenib-resistant); details: 501Mel XP, in %

| Structure (SMILES) | cell viability (kinase inhibitor library screening) ([1]; 1μΜ) | cell viability (kinase inhibitor library screening) ([1]; 10μΜ) | cell viability (kinase inhibitor library screening) ([2]; 1μΜ) | cell viability (kinase inhibitor library screening) ([2]; 10μΜ) | cell viability (kinase inhibitor library screening) (A375 cells (parental); 1μΜ) | cell viability (kinase inhibitor library screening) (A375 cells (parental); 10μΜ) | cell viability (kinase inhibitor library screening) (501Mel cells (parental); 1μΜ) | cell viability (kinase inhibitor library screening) (501Mel cells (parental); 10μΜ) | cell viability (kinase inhibitor library screening) ([3]; 1μΜ) | cell viability (kinase inhibitor library screening) ([3]; 10μΜ) | cell viability (kinase inhibitor library screening) ([4]; 1μΜ) | cell viability (kinase inhibitor library screening) ([4]; 10μΜ) | cell viability (kinase inhibitor library screening) ([5]; 10μΜ) | cell viability (kinase inhibitor library screening) (IGR37 cells (parental); 1μΜ) | cell viability (kinase inhibitor library screening) (IGR37 cells (parental); 10μΜ) | cell viability (kinase inhibitor library screening) ([6]; 1μΜ) | cell viability (kinase inhibitor library screening) ([6]; 10μΜ) | cell viability (kinase inhibitor library screening) ([5]; 1μΜ) |
| --- | --- | --- | --- | --- | --- | --- | --- | --- | --- | --- | --- | --- | --- | --- | --- | --- | --- | --- |
| COc1cc(Nc2ncc(F)c(Nc3ccc4c(n3)NC(=O)C(C)(C)O4)n2)cc(OC)c1OC.O=S(=O)(O)c1ccccc1 [R406] | 89.4 | 27.5 | 90.2 | 56.0 | 104.7 | 58.1 | 89.8 | 71.4 | 86.1 | 50.0 | 99.5 | 69.5 | 54.6 | 103.3 | 95.3 | 102.9 | 48.7 |  |
| COc1cc(Nc2ncc(F)c(Nc3ccc4c(n3)N(COP(=O)(O)O)C(=O)C(C)(C)O4)n2)cc(OC)c1OC [R788 (Fostamatinib)] | 89.9 | 12.1 | 87.5 | 21.3 | 95.5 | 47.5 | 98.5 | 76.6 | 90.2 | 61.2 | 93.7 | 63.9 | 49.0 | 99.8 | 77.8 | 82.4 | 25.1 | 89.5 |
| FC(F)(F)c1ccc(Nc2nc3ccc(Oc4ccnc(-c5ncc(C(F)(F)F)[nH]5)c4)cc3[nH]2)cc1 [Raf265 derivative] | 106.8 | 69.4 | 94.6 | 87.0 | 104.6 | 74.8 |  | 91.6 |  | 88.7 |  | 66.1 | 60.2 | 104.0 | 102.6 | 116.2 | 77.9 | 97.7 |
